US11078170B2 (Assembly Biosciences, Inc., priority 2017, dated 2021)

test system: HBV viral production from HepAD38 cells; experiment: Activity of test compounds on viral production from HepAD38 cells (viral load by qPCR of HBV core sequence in supernatant); assay type: cell-based; conditions: Hepatitis B virus, 120 h, 5 days incubation, HBV DNA in supernatant by qPCR, top concentration 10 μM, read-out: Viral Load EC50 Activity range
Method: Assay Measuring Activity of Test Compounds on Viral Production from HepAD38 Cells
HepAD38 cells grown in a T-150 flask (Corning, cat #: 430825) with Growth Medium (DMEM/F12 (1:1) (Hyclone, cat #: SH30023.02), 1×Pen/Strep (Invitrogen, cat #: 15140-122), 10% FBS (Tissue Culture Biologics, cat #: 101), 250 μg/mL G418 (Alfa Aesar, cat #: J62671), 1 μg/mL Tetracycline (Teknova, cat #: T3320)) were detached with 0.25% trypsin-EDTA (Invitrogen, cat #: 25200-056). Tetracycline-free treatment medium (15 mL DMEM/F12 (1:1) 1× Pen/step, with 2% FBS, Tet-system approved (Clontech, cat #: 631106) were then added to mix, transferred into a 50 ml conical tube (Falcon, cat #: 21008-918) and spun at 1300 rpm for 5 min. Pelleted cells were then re-suspended/washed with 50 mL of 1×DPBS (Invitrogen, cat #: 14190-136) 2 times and 50 mL treatment medium twice. HepAD38 cells were then re-suspended with 10 mL of treatment medium, syringed and counted. Wells of 96-well clear bottom TC plate (Corning, cat #: 3904) were seeded at 50,000 cells/well in 180 μL of treatment medium, and 20 μL of either 10% DMSO (Sigma, cat #: D4540) as controls or a 10× solution of test compounds in 10% DMSO in treatment media was added for a final compound concentration starting at 10 μM, and plates were incubated in 5% CO2 incubator at 37° C. for 5 days.
Subsequently viral load production was assayed by quantitative PCR (qPCR) of the HBV core sequence. PCR reaction mixture containing forward primers HBV-f 5′-CTGTGCCTTGGGTGGCTTT-3′, which is SEQ ID NO 1, (IDT DNA), Reverse primers HBV-r 5′-[…]-3′, which is SEQ ID NO 2 (IDT DNA), Fluorescent TaqMan™ Probes HBV-probe 5′-FAM/AGCTCCAAA/ZEN/[…]/3IABkFQ-3′ (IDT DNA), which is SEQ ID NO 3, 10 μL/well of PerfeCTa® qPCR ToughMix® (Quanta Biosciences, Cat #: 95114-05K), and 6 µL/well of DEPC water (Alfa Aesar, cat #: J62087) was prepared. Four μL of supernatant was added to 16 μL of the reaction mixture in a qPCR plate (Applied Biosytems, Cat #: 4309849), sealed with a film (Applied Biosystems, Cat #: 4311971), centrifuged for a few seconds, and subsequently run on an Applied Biosystems VIIA7. The PCR mixture was incubated at 45° C. for 5 min, then 95° C. for 10 min, followed by 40 cycles of 10 seconds at 95° C. and 20 seconds at 60° C. Viral load was quantified against known HBV DNA standards by using ViiA™ 7 Software. Viral load in the supernatant from wells with treated cells were compared against viral load in supernatant from DMSO control wells (≥3 per plate). Cell viability assay was performed with CellTiter-Glo Luminescent Cell Viability Assay (Promega, cat #: G7573) with modification. Mixed appropriate amount of CellTiter-Glo (CTG) 1×DPBS in a 1:1 ratio, added 100 uL of the mixture to each well followed completely removal of all supernatant in each well without touching cell surface. Incubated the plate at room temperature for 10 min on an orbital shaker, and then read the plate with a plate reader (TECAN M1000 or Envision). EC50 or CC50 values were calculated through curve-fitting of the four-parameter nonlinear-logistic-regression model (GraphPad Prism or Dotmatics). CC50 values were all >10 μM.

Which EC50 does the source give for CN1C(C(=O)Nc2ccc(F)c(Cl)c2)CC(c2ncc(-c3cccnc3)s2)NS1(=O)=O (racemic) [HBV-CSU-175, Cis-N-(3-Chloro-4-fluorophenyl)-2-methyl-5-(5-(pyridin-3-yl)thiazol-2-yl)-1,2,6-thiadiazinane-3-carboxamide 1,1-dioxide] here?
Its EC50 is under 1000 nM.

Which EC50 does the source give for CN1C(C(=O)Nc2ccc(F)c(Cl)c2)CC(c2ncc(-c3ccccn3)s2)NS1(=O)=O (racemic) [HBV-CSU-176, Cis-N-(3-chloro-4-fluorophenyl)-2-methyl-5-(5-(pyridin-2-yl)thiazol-2-yl)-1,2,6-thiadiazinane-3-carboxamide 1,1-dioxide] here?
Its EC50 is under 1000 nM.

How did the EC50 turn out when CN1C(C(=O)Nc2ccc(F)c(Cl)c2)CC(c2ncc(-c3cnn(C)c3)s2)NS1(=O)=O (racemic) [HBV-CSU-177, Cis-N-(3-Chloro-4-fluorophenyl)-2-methyl-5-(5-(1-methyl-1H-pyrazol-4-yl)thiazol-2-yl)-1,2,6-thiadiazinane-3-carboxamide 1,1-dioxide] was run?
Its EC50 is under 1000 nM.

How did the EC50 turn out when CN1C(C(=O)Nc2ccc(F)c(Cl)c2)CC(c2ncc(-c3cccs3)s2)NS1(=O)=O (racemic) [HBV-CSU-178, Cis-N-(3-Chloro-4-fluorophenyl)-2-methyl-5-(5-(thiophen-2-yl)thiazol-2-yl)-1,2,6-thiadiazinane-3-carboxamide 1,1-dioxide] was run?
Its EC50 is under 1000 nM.

How did the EC50 turn out when CN(C)CCOc1ccc(C2CC(C(=O)Nc3ccc(F)c(Cl)c3)N(C)S(=O)(=O)N2)s1 (racemic) [HBV-CSU-188, Cis-N-(3-chloro-4-fluorophenyl)-5-(5-(2-(dimethylamino)ethoxy)thiophen-2-yl)-2-methyl-1,2,6-thiadiazinane-3-carboxamide 1,1-dioxide] was run?
The EC50 was under 1000 nM.

Which EC50 does the source give for CN(C)CCCOc1ccc(C2CC(C(=O)Nc3ccc(F)c(Cl)c3)N(C)S(=O)(=O)N2)cc1 (racemic) [HBV-CSU-208, Cis-N-(3-chloro-4-fluorophenyl)-5-(4-(3-(dimethylamino)propoxy)phenyl)-2-methyl-1,2,6-thiadiazinane-3-carboxamide 1,1-dioxide] here?
The EC50 was under 1000 nM.

Which EC50 does the source give for COCCN1C(C(=O)Nc2ccc(F)c(Cl)c2)CC(c2ccc(F)cc2)NS1(=O)=O (racemic) [HBV-CSU-210, Cis-N-(3-Chloro-4-fluorophenyl)-5-(4-fluorophenyl)-2-(2-methoxyethyl)-1,2,6-thiadiazinane-3-carboxamide 1,1-dioxide] here?
Its EC50 is under 1000 nM.

Which EC50 does the source give for CN1C(C(=O)Nc2ccc(F)c(Br)c2)CC(c2ccc(F)cc2)NS1(=O)=O (racemic) [HBV-CSU-211, Cis-N-(3-Bromo-4-fluorophenyl)-5-(4-fluorophenyl)-2-methyl-1,2,6-thiadiazinane-3-carboxamide 1,1-dioxide] here?
Its EC50 is under 1000 nM.

With CN1C(C(=O)Nc2cc(F)c(F)c(F)c2)CC(c2ccc(F)cc2)NS1(=O)=O (racemic) [HBV-CSU-212, Cis-5-(4-Fluorophenyl)-2-methyl-N-(3,4,5-trifluorophenyl)-1,2,6-thiadiazinane-3-carboxamide 1,1-dioxide] as the compound, how does the EC50 read?
The EC50 was under 1000 nM.

CN1C(C(=O)Nc2ccc(F)c(Cl)c2)CC(c2ccc(C#N)cc2)NS1(=O)=O (racemic) [HBV-CSU-213, Cis-N-(3-chloro-4-fluorophenyl)-5-(4-cyanophenyl)-2-methyl-1,2,6-thiadiazinane-3-carboxamide 1,1-dioxide] was tested. Which EC50 did it give?
The EC50 was under 1000 nM.

How did the EC50 turn out when CN1C(C(=O)Nc2ccc(F)c(Cl)c2)CC(c2ccc(C(N)=O)cc2)NS1(=O)=O (racemic) [HBV-CSU-214, Cis-5-(4-Carbamoylphenyl)-N-(3-chloro-4-fluorophenyl)-2-methyl-1,2,6-thiadiazinane-3-carboxamide 1,1-dioxide] was run?
The EC50 was under 1000 nM.

Which EC50 does the source give for CN1C(C(=O)Nc2ccc(F)c(Cl)c2)CC(c2ccc(OCC(=O)O)cc2)NS1(=O)=O (racemic) [HBV-CSU-216, Cis-2-(4-(5-((3-Chloro-4-fluorophenyl)carbamoyl)-6-methyl-1,1-dioxido-1,2,6-thiadiazinan-3-yl)phenoxy)acetic acid] here?
Its EC50 is over 5000 nM.

Which EC50 does the source give for CN1C(C(=O)Nc2ccc(F)c(Cl)c2)CC(c2ccc(C(F)(F)F)cc2)NS1(=O)=O (racemic) [HBV-CSU-217, Cis-N-(3-Chloro-4-fluorophenyl)-2-methyl-5-(4-(trifluoromethyl)phenyl)-1,2,6-thiadiazinane-3-carboxamide 1,1-dioxide] here?
The EC50 was 1000 to 5000 nM.

For CN1C(C(=O)Nc2ccc(F)c(Cl)c2)CC(c2ccc(C(=O)O)cc2)NS1(=O)=O (racemic) [HBV-CSU-218, Cis-4-(5-((3-Chloro-4-fluorophenyl)carbamoyl)-6-methyl-1,1-dioxido-1,2,6-thiadiazinan-3-yl)benzoic acid], which EC50 is on record?
Its EC50 is 1000 to 5000 nM.

How did the EC50 turn out when CN1C(C(=O)Nc2ccc(F)c(Cl)c2)CC(c2ccc(C(F)(F)F)s2)NS1(=O)=O (racemic) [HBV-CSU-219, Cis-N-(3-Chloro-4-fluorophenyl)-2-methyl-5-(5-(trifluoromethyl)thiophen-2-yl)-1,2,6-thiadiazinane-3-carboxamide 1,1-dioxide] was run?
The EC50 was under 1000 nM.

How did the EC50 turn out when CN1C(C(=O)Nc2ccc(F)c(Cl)c2)CC(c2ccc(C#N)c(F)c2)NS1(=O)=O (racemic) [HBV-CSU-221, Cis-N-(3-chloro-4-fluorophenyl)-5-(4-cyano-3-fluorophenyl)-2-methyl-1,2,6-thiadiazinane-3-carboxamide 1,1-dioxide] was run?
Its EC50 is under 1000 nM.

With CN1C(C(=O)Nc2ccc(F)c(Cl)c2)CC(C2CCCC2)NS1(=O)=O (racemic) [HBV-CSU-222, Cis-N-(3-chloro-4-fluorophenyl)-5-cyclopentyl-2-methyl-1,2,6-thiadiazinane-3-carboxamide 1,1-dioxide] as the compound, how does the EC50 read?
Its EC50 is under 1000 nM.

Which EC50 does the source give for Cc1ncc(C2CC(C(=O)Nc3ccc(F)c(Cl)c3)N(C)S(=O)(=O)N2)s1 (racemic) [HBV-CSU-224, Cis-N-(3-Chloro-4-fluorophenyl)-2-methyl-5-(2-methylthiazol-5-yl)-1,2,6-thiadiazinane-3-carboxamide 1,1-dioxide] here?
Its EC50 is under 1000 nM.

With CN1C(C(=O)Nc2ccc(F)c(Cl)c2)CC(c2ccc(F)c(F)c2)NS1(=O)=O (racemic) [HBV-CSU-230, Cis-N-(3-Chloro-4-fluorophenyl)-5-(3,4-difluorophenyl)-2-methyl-1,2,6-thiadiazinane-3-carboxamide 1,1-dioxide] as the compound, how does the EC50 read?
The EC50 was under 1000 nM.

For CN1C(C(=O)Nc2ccc(F)c(Cl)c2)CC(c2cccc(F)c2)NS1(=O)=O (racemic) [HBV-CSU-231, Cis-N-(3-Chloro-4-fluorophenyl)-5-(3-fluorophenyl)-2-methyl-1,2,6-thiadiazinane-3-carboxamide 1,1-dioxide], which EC50 is on record?
Its EC50 is under 1000 nM.

How did the EC50 turn out when CN1C(C(=O)Nc2ccc(F)c(Cl)c2)CC(c2ccc(OC(F)(F)F)cc2)NS1(=O)=O (racemic) [HBV-CSU-232, Cis-N-(3-Chloro-4-fluorophenyl)-2-methyl-5-(4-(trifluoromethoxy)phenyl)-1,2,6-thiadiazinane-3-carboxamide 1,1-dioxide] was run?
Its EC50 is under 1000 nM.

With CN1C(C(=O)Nc2ccc(F)c(Cl)c2)CC(c2ccc(-c3ccc(F)cn3)s2)NS1(=O)=O (racemic) [HBV-CSU-242, Cis-N-(3-chloro-4-fluorophenyl)-5-(5-(5-fluoropyridin-2-yl)thiophen-2-yl)-2-methyl-1,2,6-thiadiazinane-3-carboxamide 1,1-dioxide] as the compound, how does the EC50 read?
The EC50 was under 1000 nM.

Which EC50 does the source give for CN1C(C(=O)Nc2ccc(F)c(Cl)c2)CC(c2cc(-c3ccc(F)cn3)cs2)NS1(=O)=O (racemic) [HBV-CSU-243, Cis-N-(3-chloro-4-fluorophenyl)-5-(4-(5-fluoropyridin-2-yl)thiophen-2-yl)-2-methyl-1,2,6-thiadiazinane-3-carboxamide 1,1-dioxide] here?
The EC50 was under 1000 nM.
